# Results published in PMC3665241, “Scaffold-Focused Virtual Screening: Prospective Application to the Discovery of TTK Inhibitors” (Journal of Chemical Information and Modeling, 2013).
# Tests used:
# [1] = biological target: T1, GST-tagged recombinant human full-length TTK protein kinase (Homo sapiens, UniProt P33981); experiment: TTK mobility shift microfluidics assay, single-concentration percent inhibition screen; type: biochemical; conditions: 12.5 nM TTK, 10 μM ATP, mean of duplicate ± SD; for inhibition at 40 µM: compound at 40 μM, 1% DMSO; for inhibition at 400 µM: compound at 400 μM (fragment-like, MW < 300 Da)
# T1 construct: GST-tagged recombinant human full-length TTK protein kinase; purchased Invitrogen (Life Technologies Ltd., Paisley, U.K.)
# T1 sequence (P33981 1-857): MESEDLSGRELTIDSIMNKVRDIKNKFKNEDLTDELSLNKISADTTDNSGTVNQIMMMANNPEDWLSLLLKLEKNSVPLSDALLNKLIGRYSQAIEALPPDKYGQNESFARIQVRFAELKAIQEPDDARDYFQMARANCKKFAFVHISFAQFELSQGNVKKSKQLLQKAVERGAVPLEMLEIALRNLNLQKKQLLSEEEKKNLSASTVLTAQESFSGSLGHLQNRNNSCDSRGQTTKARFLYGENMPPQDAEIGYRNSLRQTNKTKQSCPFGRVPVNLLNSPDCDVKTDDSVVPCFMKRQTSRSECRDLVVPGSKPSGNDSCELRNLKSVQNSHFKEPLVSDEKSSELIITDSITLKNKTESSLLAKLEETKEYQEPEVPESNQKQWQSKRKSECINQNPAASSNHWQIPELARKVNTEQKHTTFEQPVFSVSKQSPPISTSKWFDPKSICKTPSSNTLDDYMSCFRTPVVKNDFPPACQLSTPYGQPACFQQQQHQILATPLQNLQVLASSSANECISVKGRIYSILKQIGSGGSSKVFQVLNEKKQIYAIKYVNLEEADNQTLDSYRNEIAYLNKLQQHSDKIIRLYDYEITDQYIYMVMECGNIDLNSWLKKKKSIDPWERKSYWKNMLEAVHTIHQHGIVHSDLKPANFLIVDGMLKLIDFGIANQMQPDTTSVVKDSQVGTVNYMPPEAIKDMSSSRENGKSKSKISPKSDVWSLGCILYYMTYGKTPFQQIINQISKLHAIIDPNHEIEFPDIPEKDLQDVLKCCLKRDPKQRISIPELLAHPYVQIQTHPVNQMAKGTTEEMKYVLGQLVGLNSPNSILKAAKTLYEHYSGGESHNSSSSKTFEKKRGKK
# Method: The TTK kinase activity was measured in a mobility shift microfluidics assay with the Caliper LabChip EZReader II (Caliper Life Sciences, Hopkinton, MA, U.S.A.). For the initial percent inhibition compound screen, all compounds were tested at 40 μM, and fragment-like compounds (MW < 300 Da) were also tested at 400 μM. A 2.14 μM stock of GST-tagged recombinant human full-length TTK protein kinase from Invitrogen (Invitrogen, Life Technologies Ltd., Paisley, U.K.) and custom synthesized peptide from Pepceuticals (Pepceuticals Ltd., Enderby, U.K.) with sequence 5-FAM-[…]-amide were used. […] For every 10 mL of stock buffer, one Roche EDTA free complete mini-protease inhibitor cocktail tablet (Roche, Basel, Switzerland) was added. TTK was used at a final concentration of 12.5 nM. The assay plate was sealed and incubated at room temperature for 60 min. The assay was stopped by addition of stop buffer which contained 100 mM HEPES (pH 7.3), 20 mM EDTA, and 0.05% (v/v) Brij-35. The assay plate was then analyzed using the EZReader II. Z′ for compounds at 40 μM was 0.48, and Z′ for compounds at 400 μM was 0.61.
# [2] = biological target: T1, GST-tagged recombinant human full-length TTK protein kinase; experiment: TTK mobility shift microfluidics assay, IC50 determination (3 nM TTK); type: biochemical; conditions: for IC50: 3 nM TTK, 10 μM ATP, duplicate on the same plate; for LE (ligand efficiency): from TTK IC50
# [3] = biological target: T2, TTK kinase domain (residues 519–808) (Homo sapiens, UniProt P33981); experiment: Soaking of apo TTK kinase domain crystals with inhibitor, X-ray crystallography; type: binding; conditions: crystals soaked with 10–50 mM compound for 24 h
# T2 construct: TTK kinase domain (residues 519–808); inferred from Ni-NTA purification with imidazole elution; made in house; host or cells: E. coli BL21 AI
# T2 sequence (P33981 519-808): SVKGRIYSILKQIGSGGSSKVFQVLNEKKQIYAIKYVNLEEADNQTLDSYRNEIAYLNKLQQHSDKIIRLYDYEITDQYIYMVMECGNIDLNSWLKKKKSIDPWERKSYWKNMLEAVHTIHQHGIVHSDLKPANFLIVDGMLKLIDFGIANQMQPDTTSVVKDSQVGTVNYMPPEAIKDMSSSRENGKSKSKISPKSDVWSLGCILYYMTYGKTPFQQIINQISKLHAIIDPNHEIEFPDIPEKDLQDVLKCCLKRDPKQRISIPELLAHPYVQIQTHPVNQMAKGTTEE
# Description: In recognition of the desirability of protein–ligand crystal structures to educate the efficient follow-up of fragment-like hit matter and our wish to determine the mode of binding of hits identified with the scaffold-focused virtual screen, we sought co-crystal structures of confirmed hits with TTK. To this end, apo crystals of TTK kinase domain were soaked in buffer solution containing the respective inhibitor (2–9). X-ray data were collected for all crystals, and the structures were solved using molecular replacement. We successfully obtained co-crystal structures of TTK with fragment-like hit compounds 3, 4, 5, and 7. […] A summary of crystallographic analysis is presented in Table 4, and the binding modes of compounds 3, 4, 5, and 7 are illustrated in Figure 7 with Fo–Fc electron density omit maps surrounding the ligand shown in green wire-mesh contoured at 3σ. In all four structures, the activation loop of TTK is disordered, possibly due to the presence of a PEG molecule bound to Lys553, a residue which would usually coordinate with Glu571 to help stabilize the activation loop (Lys553 is not shown in Figure 7 for clarity).
# TTK was purified and crystallized as described previously.[26] Plasmids for expression of TTK were received from Stefan Knapp, Structural Genomics Consortium, Oxford, U.K. TTK kinase domain (residues 519–808) was expressed in E. coli BL21 AI competent cells (Invitrogen, Life Technologies Ltd., Paisley, U.K.). Cells were cultured in LB media containing kanamycin selection antibiotic and induced with 0.5 mM IPTG and 1g/L L-arabinose at an OD280 of 0.7. Cells were then incubated overnight at 18 °C with shaking at 225 rpm. Cells were harvested and resuspended in lysis buffer containing 50 mM HEPES pH 7.5, 500 mM NaCl, 10 mM imidazole, 5% (v/v) glycerol, lysozyme, and 1 Roche EDTA free complete protease inhibitor cocktail tablet (Roche, Basel, Switzerland) per 3 L of buffer. TTK was purified using Ni–NTA nickel affinity resin and washed in buffer containing 30 mM imidazole. TTK was then eluted from the resin with 250 mM imidazole. Eluate was concentrated using a Vivaspin concentrator with a 30 kDa molecular weight cutoff (GE Healthcare, Chalfont St. Giles, U.K.) and further purified on gel filtration column Superdex 200 16/60 (GE Healthcare, Chalfont St. Giles, U.K.) equilibrated in buffer containing 10 mM HEPES pH 7.5, 150 mM NaCl, 5 mM DTT, and 5 mM EDTA. The sample was concentrated to a final concentration of 8.9 mg/mL, snap frozen on dry ice, and stored at −80 °C until required.
# Purified TTK was crystallized at 18 °C using the sitting drop vapor diffusion method with drops composed of 2 μL protein (8.9 mg/mL) and 2 μL reservoir solution placed over 200 μL reservoir solution of H2O/PEG300 (30–45% (v/v)) in 48 well plates. […]
SMILES,inhibition at 40 µM [1],inhibition at 400 µM [1],IC50 ([2]; 1% DMSO),LE (ligand efficiency) [2],binding in ATP binding site of soaked TTK crystals (electron density) [3],IC50 ([2]; 10% DMSO (asterisk))
COc1ccc(Nc2cc(C)nc3ncnn23)cc1OC [Compound 24],52%,34.5 ± 0.71%,> 1000 µM,,,
N#Cc1ccccc1NC(=O)Cn1ncc2c1-c1ccccc1OC2 [Compound 10],53.5 ± 0.71%,,,,,
"COc1ccc2c(c1)[nH]c1c(C)nccc12 [Compound 8, harmine]",19%,65 ± 1.41%,160 µM,0.32,not bound,
c1ccc(-c2nc3cnccc3[nH]2)nc1 [Compound 6],21.5 ± 2.12%,66%,91.5 µM,0.37,not bound,
COc1ccc(Nc2nc(N)nc3nc[nH]c23)cc1OC [Compound 13],72 ± 1.41%,86 ± 0.41%,7.7 µM,0.33,,
"c1cc2c(cn1)cnc1sccc12 [Compound 7, thieno[2,3-c][2,7]naphthyridine]",51 ± 1.41%,94.5 ± 2.12%,,0.42,,
Nc1nnc2c([nH]c3ccccc32)c1-c1ccccc1 [Compound 2],52 ± 1.41%,56 ± 1.41%,53 µM,0.29,not bound,
COc1ccc(Nc2cc(Cl)nc(N)n2)cc1OC [Compound 19],65.5 ± 0.71%,96.5 ± 0.71%,56.2 µM,0.30,,
COc1ccc(Nc2ccc3nnc(C(F)(F)F)n3n2)cc1OC [Compound 21],59 ± 2.83%,,,0.23,,90.1 µM
COc1ccc(C(=O)c2oc3cc(NC(C)=O)ccc3c2C)cc1OC [Compound 12],68.5 ± 2.12%,,4.2 µM,0.28,,
COc1ccc(Nc2nc(Nc3ccc(OC)c(OC)c3)c3[nH]cnc3n2)cc1OC [Compound 22],71.5 ± 2.12%,,< 0.025 µM,,,
COc1ccc(Nc2ccc3nnnn3n2)cc1OC [Compound 20],71.5 ± 0.71%,24.5 ± 2.12%,,0.28,,78.6 µM
COc1ccc(Nc2ncnc3[nH]ncc23)cc1OC [Compound 17],69%,67%,33.3 µM,0.31,,
COc1ccc(Nc2cc(C)nc(SC)n2)cc1OC [Compound 15],57.5 ± 2.12%,75.5 ± 0.71%,19.6 µM,0.32,,
COc1ccc(Nc2ncnc3sc(-c4ccccc4)cc23)cc1OC [Compound 11],64 ± 1.41%,,2.1 µM,0.30,,
COc1ccc(Nc2ncnc3c2cnn3C)cc1OC [Compound 16],45.5 ± 2.12%,82.5 ± 0.71%,19.3 µM,0.31,,
COc1ccc(NC(=O)c2nc[nH]n2)cc1OC [Compound 23],23 ± 4.24%,51 ± 1.41%,> 1000 µM,,,
"c1cc2cnc3sccc3c2cn1 [Compound 3, Thieno[2,3-c][2,6]naphthyridine]",70%,105.5 ± 0.71%,,0.45,,
COc1ccc(Nc2ncnc3nc[nH]c23)cc1OC [Compound 18],34 ± 2.83%,67 ± 0.41%,40.9 µM,0.30,,
COc1ccc(Nc2cc(-c3ccccc3)ncn2)cc1OC [Compound 14],68.5 ± 0.71%,,9.9 µM,0.30,,
"c1ccc2c(c1)[nH]c1cncnc12 [Compound 4, 5H-pyrimido[5,4-b]indole]",42.5 ± 0.71%,63 ± 2.83%,,0.44,,
"c1cc2cnc3ccsc3c2cn1 [Compound 5, thieno[3,2-c][2,6]naphthyridine]",46 ± 1.41%,65 ± 2.83%,,0.44,,
